Assay results reported in patent US20210338681A1, “COMBINATION THERAPIES” (SECURA BIO, INC., priority 2018, published 2021).
“Also recorded” adds a separate entry of the source.

Columns and labels:
[1] = tested on: human macrophages; test: Phagocytosis of CTV-labelled Raji cells by human monocyte-derived macrophages with anti-CD47 clone 5F9, flow cytometry-based assay (Example 2); type: cell-based; conditions: 3000 nM duvelisib during last 3 days of differentiation; CD47 blocking antibody clone 5F9 300 ng/ml, 2 hours; compared to duvelisib or anti-CD47 alone; FIG. 2
Experimental: PBMC were isolated using a density gradient from healthy donor blood samples. CD14+ monocytes were then separated using magnetic selection and differentiated into MO macrophages for 6 days in the presence of M-CSF. Duvelisib (3000 nM) or vehicle (DMSO) were added during the last 3 days of differentiation. Raji cells (ATCC® CCL-86™), which are positive for surface expression of CD47, were labelled with cell trace violet (CTV). These cells were then offered to the macrophage cultures in the presence of CD47 blocking antibody at 300 ng/ml (clone 5F9) for 2 hours to allow phagocytosis to occur. The effect of duvelisib on the capacity of macrophages to phagocytose target cells was determined in a flow cytometry-based assay.

[2] = tested on: human macrophages; test: Phagocytosis of CTV-labelled DLD-1 and Raji cells by human monocyte-derived macrophages, flow cytometry-based assay (Example 1); type: cell-based; conditions: FIG. 1
Experimental: PBMC were isolated using a density gradient from healthy donor blood samples. CD14+ monocytes were then separated using magnetic selection and differentiated into MO macrophages for 6 days in the presence of M-CSF and 3000 nM of duvelisib or vehicle (DMSO). Two cell lines positive for surface expression of CD47, DLD-1 (ATCC® CCL-221™) and Raji cells (ATCC® CCL-86™), were labelled with cell trace violet (CTV). These were then offered to the macrophage cultures in the presence of duvelisib or vehicle control for 4 hours to allow phagocytosis to occur. For the part of the assay where a CD47 blocking antibody and an opsonizing antibody were used, CD47 blocking antibody at 1 μg/ml (clone B6H12) and rituximab (for Raji cells) or cetuximab (for DLD-1 cells) at 1 μg/ml were added during the 4 hours co-culture. The effect of duvelisib on the capacity of macrophages to phagocytose target cells was determined in a flow cytometry-based assay.

C[C@H](Nc1ncnc2[nH]cnc12)c1cc2cccc(Cl)c2c(=O)n1-c1ccccc1 [duvelisib, (S)-3-(1-((9H-purin-6-yl)amino)ethyl)-8-chloro-2-phenylisoquinolin-1(2H)-one]
phagocytosis of Raji Burkitt's lymphoma cells by human macrophages, duvelisib in combination with anti-CD47 (clone 5F9) [1]: enhances phagocytosis; also recorded: increasing phagocytosis | phagocytosis by human macrophages, duvelisib as a single agent ([2]; 3000 nM duvelisib vs vehicle (DMSO) during 6 days differentiation with M-CSF and 4 hours co-culture, target cells DLD-1 and Raji, two representative donors per condition): increases phagocytosis; also recorded: increasing phagocytosis | phagocytosis by human macrophages, duvelisib in combination with anti-CD47 (clone B6H12) and an opsonizing antibody ([2]; 3000 nM duvelisib, CD47 blocking antibody clone B6H12 1 μg/ml plus rituximab (Raji cells) or cetuximab (DLD-1 cells) 1 μg/ml during 4 hours co-culture): increases phagocytosis; also recorded: increasing phagocytosis
